From PubChem BioAssay (NCI)
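Grown in 96-well plates, cells were treated for 48 hours with each compound at five concentrations. Insufficient inhibition: endpoint recorded as highest concentration tested. Abbreviation: GI50, concentration required for 50% inhibition of growth. TGI denotes the concentration required for complete inhibition of growth.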

Tests used:
Assay in all cases: growth of human tumour cells (NCI), 48 h
[1] = test system: NCI-H23 lung
[2] = test system: PC-3 prostate
[3] = test system: MCF7 breast
[4] = test system: K-562 leukemia
[5] = test system: EKVX NSCLC
[6] = test system: OVCAR-5 ovarian
[7] = test system: SNB-75 CNS
[8] = test system: HCT-15 colon
[9] = test system: HCC-2998 colon
[10] = test system: DU-145 prostate
[11] = test system: SK-MEL-5 melanoma
[12] = test system: NCI-H460 lung
[13] = test system: HOP-92 NSCLC
[14] = test system: RXF 393 renal
[15] = test system: ACHN renal
[16] = test system: NCI-H226 lung
[17] = test system: NCI-H522 lung
[18] = test system: A498 renal
[19] = test system: SF-268 CNS
[20] = test system: UACC-257 melanoma
[21] = test system: HOP-62 NSCLC
[22] = test system: HT29 colon
[23] = test system: SR leukemia
[24] = test system: SW-620 colon
[25] = test system: 786-0 renal
[26] = test system: TK-10 renal
[27] = test system: OVCAR-3 ovarian
[28] = test system: SF-295 CNS
[29] = test system: MDA-MB-231 breast
[30] = test system: IGROV1 ovarian
[31] = test system: U251 CNS
[32] = test system: SN12C renal
[33] = test system: UO-31 renal
[34] = test system: RPMI-8226 leukemia
[35] = test system: SK-OV-3 ovarian
[36] = test system: COLO 205 colon
[37] = test system: T-47D breast
[38] = test system: OVCAR-8 ovarian
[39] = test system: UACC-62 melanoma
[40] = test system: KM12 colon
[41] = test system: HCT-116 colon
[42] = test system: CCRF-CEM leukemia
[43] = test system: MDA-MB-435
[44] = test system: NCI/ADR-RES ovarian
[45] = test system: M14 melanoma
[46] = test system: CAKI-1 renal
[47] = test system: SNB-19 CNS
[48] = test system: HS 578T breast
[49] = test system: HL-60(TB) leukemia
[50] = test system: SF-539 CNS
[51] = test system: A549 NSCLC
[52] = test system: MALME-3M melanoma
[53] = test system: LOX IMVI melanoma
[54] = test system: SK-MEL-2 melanoma
[55] = test system: BT-549 breast
[56] = test system: OVCAR-4 ovarian
[57] = test system: SK-MEL-28 melanoma
[58] = test system: MOLT-4 leukemia

For `COc1cc(-c2nc3cc(Cl)c(Cl)cc3[nH]2)ccc1OCC(=O)N=Nc1c(O)[nH]c2ccccc12`, the GI50 [1] was 287 nM, the TGI [1] was 938 nM and the GI50 [2] was 533 nM. It also gave a TGI [2] of 2070 nM, a GI50 [3] of 201 nM and a TGI [3] of 479 nM. It also gave a GI50 [4] of 345 nM, a TGI [4] of over 31700 nM and a GI50 [5] of 2020 nM. The TGI [5] was 21700 nM, the GI50 [6] was 840 nM and the TGI [6] was 2450 nM. It also gave a GI50 [7] of 1230 nM, a TGI [7] of 2650 nM and a TGI [8] of over 56500 nM. For the same compound, the GI50 [9] was 419 nM, the TGI [9] was 1430 nM and the GI50 [10] was 501 nM. The TGI [10] was 1900 nM, the GI50 [11] was 541 nM and the TGI [11] was 1760 nM. It also gave a GI50 [12] of 420 nM, a TGI [12] of 1630 nM and a GI50 [13] of 794 nM. The TGI [13] was 2420 nM, the GI50 [14] was 678 nM and the TGI [14] was 2100 nM. For the same compound, the GI50 [15] was 2110 nM, the TGI [15] was 13800 nM and the GI50 [16] was 1040 nM. It also gave a TGI [16] of 2670 nM, a GI50 [17] of 301 nM and a TGI [17] of 2180 nM. The GI50 [18] was 1460 nM, the TGI [18] was 3370 nM and the GI50 [19] was 566 nM. It also gave a TGI [19] of 3060 nM, a GI50 [20] of 1320 nM and a TGI [20] of 3670 nM. The GI50 [21] was 832 nM, the TGI [21] was 2620 nM and the GI50 [22] was 352 nM. For the same compound, the TGI [22] was 4720 nM, the GI50 [23] was 301 nM and the TGI [23] was over 100000 nM. For the same compound, the GI50 [24] was 355 nM, the TGI [24] was 1430 nM and the GI50 [25] was 370 nM. For the same compound, the TGI [25] was 1540 nM, the GI50 [26] was 2450 nM and the TGI [26] was 6760 nM. The GI50 [27] was 409 nM, the TGI [27] was 1430 nM and the GI50 [28] was 1280 nM. For the same compound, the TGI [28] was 2710 nM, the GI50 [29] was 450 nM and the TGI [29] was 1690 nM. It also gave a GI50 [30] of 313 nM, a TGI [30] of 1010 nM and a GI50 [31] of 244 nM. For the same compound, the TGI [31] was 681 nM, the GI50 [32] was 506 nM and the TGI [32] was 1800 nM. The GI50 [33] was over 52600 nM, the TGI [33] was over 100000 nM and the GI50 [34] was 645 nM. For the same compound, the TGI [34] was 3350 nM, the GI50 [35] was 1910 nM and the TGI [35] was 4390 nM. The GI50 [36] was 384 nM, the TGI [36] was 1500 nM and the GI50 [37] was 288 nM. It also gave a TGI [37] of 1140 nM, a GI50 [38] of 327 nM and a TGI [38] of 1590 nM. It also gave a GI50 [39] of 1410 nM, a TGI [39] of 2750 nM and a GI50 [40] of 1070 nM. The TGI [40] was 3190 nM, the GI50 [41] was 445 nM and the TGI [41] was 1550 nM. It also gave a GI50 [42] of 322 nM, a TGI [42] of 17500 nM and a GI50 [43] of 389 nM. The TGI [43] was 1420 nM, the GI50 [44] was over 79900 nM and the TGI [44] was over 100000 nM. The GI50 [45] was 328 nM, the TGI [45] was 1330 nM and the GI50 [46] was 1450 nM. The TGI [46] was 2940 nM, the GI50 [47] was 657 nM and the TGI [47] was 5350 nM. For the same compound, the GI50 [48] was 1210 nM, the TGI [48] was 4050 nM and the GI50 [49] was 392 nM. The TGI [49] was 2220 nM, the GI50 [50] was 1080 nM and the TGI [50] was 2290 nM. It also gave a GI50 [51] of 1410 nM, a TGI [51] of 14100 nM and a GI50 [52] of 226 nM. For the same compound, the TGI [52] was 683 nM, the GI50 [53] was 192 nM and the TGI [53] was 368 nM. It also gave a GI50 [54] of 1330 nM, a TGI [54] of 3270 nM and a GI50 [55] of 822 nM. For the same compound, the TGI [55] was 2290 nM, the GI50 [56] was 307 nM and the TGI [56] was 921 nM. The GI50 [57] was 1380 nM and the TGI [57] was 2680 nM.

`Nc1[nH]nc2c1Cc1c(n(Cc3ccc(Cl)cc3)c3ccccc13)C(=O)N2` was tested, and the TGI [1] was 23900 nM, the TGI [2] was 23500 nM and the TGI [3] was 26900 nM. The TGI [4] was over 100000 nM, the TGI [5] was 59200 nM and the TGI [6] was 27300 nM. The TGI [7] was 30600 nM, the TGI [8] was 16800 nM and the TGI [9] was 24600 nM. The TGI [10] was 24400 nM, the TGI [11] was 17600 nM and the TGI [12] was 27300 nM. For the same compound, the TGI [13] was 31500 nM, the TGI [14] was 25900 nM and the TGI [16] was 44700 nM. For the same compound, the TGI [18] was 29700 nM, the TGI [19] was 47800 nM and the TGI [20] was 46400 nM. The TGI [21] was 31100 nM, the TGI [22] was 34900 nM and the TGI [23] was over 100000 nM. For the same compound, the TGI [24] was over 100000 nM, the TGI [26] was 35000 nM and the TGI [27] was 30500 nM. The TGI [28] was 35900 nM, the TGI [29] was 30600 nM and the TGI [30] was 31800 nM. The TGI [32] was 28000 nM, the TGI [33] was 19400 nM and the TGI [35] was 34600 nM. For the same compound, the TGI [36] was 23700 nM, the TGI [37] was 28900 nM and the TGI [38] was 39200 nM. For the same compound, the TGI [39] was over 100000 nM, the TGI [41] was 21800 nM and the TGI [42] was 26600 nM. For the same compound, the TGI [43] was 16500 nM, the TGI [44] was 44600 nM and the TGI [45] was 26000 nM. It also gave a TGI [46] of 23500 nM, a TGI [48] of 40200 nM and a TGI [58] of 29300 nM. For the same compound, the TGI [49] was 10200 nM, the TGI [50] was 29900 nM and the TGI [51] was 46200 nM. The TGI [52] was 52300 nM, the TGI [53] was 26400 nM and the TGI [54] was 34300 nM. It also gave a TGI [55] of 36600 nM, a TGI [56] of 32000 nM and a TGI [57] of over 100000 nM.
